Measurements reported in US20220362405A1, “COMPOSITIONS AND METHODS FOR TREATING LIVER DISEASE” (UNIVERSITY OF PITTSBURGH-OF THE COMMONWEALTH SYSTEM OF …, priority 2019, published 2022).

Test system: AKT
Assay: AKT inhibition in normal human hepatocytes (western blot)
Assay type: cell-based
Settings: 5 μM MK-2206, 24 hours, freshly isolated normal human hepatocytes, preliminary experiments
Text: Protein extraction and Western blotting. To perform the protein expression analysis, the isolated hepatocytes were divided in two fractions; one fraction was used for total protein extraction, according to standard procedures previously described (Bell A W et al., 2006) and the other fraction was used for nuclear protein isolation. For nuclear protein isolation, between 1×10^7 and 5×10^7 isolated hepatocytes per patient were washed and harvested in 40 mmol/L Tris (pH 7.6), 14 mmol/L NaCl, and 1 mmol/L EDTA, then centrifuged (5 min, 100g). Cell pellets were suspended in 2 mL of hypotonic buffer [10 mmol/L HEPES (pH 7.9), 10 mmol/L NaH2PO4, 1.5 mmol/L MgCl2, 1 mmol/L DTT, 0.5 mmol/L spermidine, and […] with protease and phosphatase inhibitor cocktails (Sigma, St. Louis, Mo.)]. Following 10 minutes of incubation on ice, samples were homogenized in a Dounce homogenizer and then centrifuged (5 min, 800 g). Cell lysis was monitored with trypan blue stain. Supernatants were saved as cytoplasmic extracts. The nuclei pellets were washed two additional times in the same buffer.
Nuclear proteins were extracted in 50-100 μL of hypertonic buffer [30 mmol/L HEPES (pH 7.9), 25% glycerol, 450 mmol/L NaCl, 12 mmol/L MgCl2, 1 mmol/L DTT, and 0.1 mmol/L EDTA with protease and phosphatase inhibitor cocktails (Sigma, St. Louis, Mo.)] for 45 minutes at 4° C. with continuous agitation. Extracts were centrifuged at 30,000 g, and the supernatants were collected and dialyzed for 2 hours against the same solution but containing 150 mmol/L NaCl. Protein concentration was determined by the Bicinchoninic Acid assay (Sigma, St. Louis, Mo.).
Western blot analysis performed according to standard procedures (Natarajan A et al., 2007). The intensity of each protein band was quantitated using National Institutes of Health Image J software. The primary antibodies and its dilutions are listed in the above shown Table 2.
AKT Inhibition in Normal Human Hepatocytes. Normal human hepatocytes (1 million cells/well) were cultured on collagen-coated wells. […]

**Q.** For NC1(c2ccc(-c3nc4ccn5c(=O)[nH]nc5c4cc3-c3ccccc3)cc2)CCC1 [MK-2206], which “acetylated nuclear HNF4α expression reduced compared with nontreated controls” value is on record?
**A.** The value was 14%.

**Q.** And the “activated AKT(Thr308) expression reduced compared with nontreated controls” value?
**A.** The value was 80%.

**Q.** And the “nuclear HNF4α expression reduced compared with nontreated controls” value?
**A.** The value was 25%.
